Active and inactive are the calls of the source. The rule behind the calls is not given here.
Columns and labels:
[1] = tested on: SW-620; experiment: Antitumor activity in human SW620 cells xenografted nude mouse assessed as decrease in tumor weight at 2 mg/kg, ip after 21 days; type: functional; design: scale not given: the % may be the effect or the level left; settings: route intraperitoneal
[2] = tested on: Mus musculus; experiment: Toxicity in SW480 cells xenografted nude mouse assessed as change in body weight 2 mg/kg/day, ip after 21 days; type: organism-based; design: route intraperitoneal; settings: in vivo, 504 h
[3] = tested on: SW-620; experiment: Antitumor activity in human SW620 cells xenografted nude mouse assessed as decrease in tumor volume at 2 mg/kg, ip after 21 days; type: functional; design: scale not given: the % may be the effect or the level left; settings: route intraperitoneal
[4] = tested on: Mus musculus; experiment: Toxicity in SW480 cells xenografted nude mouse assessed as change in body weight 5 mg/kg/day, ip after 21 days; type: organism-based; design: route intraperitoneal; settings: in vivo, 504 h
[5] = tested on: SW-620; experiment: Antitumor activity in human SW620 cells xenografted nude mouse assessed as decrease in tumor volume at 5 mg/kg/day, po after 10 days; type: functional
[6] = tested on: SW-620; experiment: Antitumor activity in human SW620 cells xenografted nude mouse assessed as decrease in tumor volume at 5 mg/kg/day, po after 5 days; type: functional
[7] = tested on: SW-620; experiment: Antitumor activity in human SW620 cells xenografted nude mouse assessed as decrease in tumor volume at 5 mg/kg/day, po after 16 days; type: functional
[8] = tested on: SW-620; experiment: Antitumor activity in human SW620 cells xenografted nude mouse assessed as decrease in tumor volume at 5 mg/kg/day, po after 27 days; type: functional
[9] = tested on: SW-620; experiment: Antitumor activity in human SW620 cells xenografted nude mouse assessed as decrease in tumor volume at 5 mg/kg/day, po after 23 days; type: functional
[10] = tested on: HCT-116; experiment: Antiproliferative activity against human HCT 116 cells after 48 hrs by MTS assay; type: functional, cell-based
[11] = tested on: MDA-MB-231; experiment: Induction of apoptosis in human MDA-MB-231 cells assessed as ROS production after 24 hrs; type: functional, cell-based
[12] = tested on: SW-620; experiment: Antitumor activity against human SW620 cells at 100 uM after 96 hrs; type: functional; settings: SW-620, 96 h
[13] = tested on: PC-3; experiment: Antiproliferative activity against human PC-3 cells after 48 hrs by MTS assay; type: functional, cell-based
[14] = tested on: SW-620; experiment: Antitumor activity against human SW620 cells at 100 uM after 72 hrs; type: functional; settings: SW-620, 72 h
[15] = tested on: K562; experiment: Antiproliferative activity against human K-562 cells after 48 hrs by MTS assay; type: functional, cell-based
[16] = tested on: SW-620; experiment: Induction of apoptosis in human SW620 cells assessed as chromosomal DNA fragmentation at […] after 48 hrs by FACS analysis; type: functional, cell-based
[17] = tested on: SW-620; experiment: Antitumor activity against human SW620 cells at 30 uM after 96 hrs; type: functional; settings: SW-620, 96 h
[18] = tested on: SW-620; experiment: Induction of apoptosis in human SW620 cells assessed as apoptotic cell form at 50 uM relative to control; type: functional
[19] = tested on: DLD-1; experiment: Antiproliferative activity against human DLD1 cells after 48 hrs by MTS assay; type: functional, cell-based
[20] = tested on: MDA-MB-231; experiment: Antiproliferative activity against human MDA-MB-231 cells after 48 hrs by MTS assay; type: functional, cell-based
[21] = tested on: MCF7; experiment: Antiproliferative activity against human MCF7 cells after 48 hrs by MTS assay; type: functional, cell-based
[22] = tested on: SW-620; experiment: Antitumor activity against human SW620 cells at 50 uM after 24 hrs; type: functional; settings: SW-620, 24 h
[23] = tested on: SW-620; experiment: Induction of apoptosis in human SW620 cells assessed as necrosis relative to control; type: functional
[24] = tested on: SW-620; experiment: Antitumor activity against human SW620 cells at 50 uM after 48 hrs; type: functional; settings: SW-620, 48 h
[25] = tested on: SW-620; experiment: Cell cycle arrest in human SW620 cells assessed as accumulation at subG1 phase at 50 uM after 72 hrs by FACS analysis; type: functional
[26] = tested on: SW-620; experiment: Antitumor activity against human SW620 cells at 100 uM after 24 hrs; type: functional; settings: SW-620, 24 h
[27] = tested on: HT-29; experiment: Antiproliferative activity against human HT-29 cells after 48 hrs by MTS assay; type: functional, cell-based
[28] = tested on: SW-620; experiment: Cell cycle arrest in human SW620 cells assessed as accumulation at G1 phase at 50 uM after 72 hrs by FACS analysis; type: functional
[29] = tested on: SW-620; experiment: Antitumor activity against human SW620 cells at 50 uM after 72 hrs; type: functional; settings: SW-620, 72 h
[30] = tested on: SW-620; experiment: Effect on apoptosis-mediated morphological changes in human SW620 cells assessed as round cell formation; type: functional, cell-based
[31] = tested on: SW-620; experiment: Antitumor activity in human SW620 cells xenografted nude mouse assessed as decrease in tumor weight at 5 mg/kg/day, ip after 21 days; type: functional; design: scale not given: the % may be the effect or the level left; settings: route intraperitoneal
[32] = tested on: SW-620; experiment: Antitumor activity against human SW620 cells at 30 uM after 72 hrs; type: functional; settings: SW-620, 72 h
[33] = tested on: SW-620; experiment: Cell cycle arrest in human SW620 cells assessed as accumulation at S phase at 50 uM after 72 hrs by FACS analysis; type: functional
[34] = tested on: SW-620; experiment: Antitumor activity against human SW620 cells at 100 uM after 48 hrs; type: functional; settings: SW-620, 48 h
[35] = tested on: DU-145; experiment: Antiproliferative activity against human DU145 cells after 48 hrs by MTS assay; type: functional, cell-based
[36] = tested on: SW-620; experiment: Antitumor activity in human SW620 cells xenografted nude mouse assessed as decrease in tumor volume at 5 mg/kg/day, ip after 21 days; type: functional; settings: route intraperitoneal
[37] = tested on: MDA-MB-231; experiment: Induction of apoptosis in human MDA-MB-231 cells assessed as morphological changes in presence of N-acetyl-cysteine after 24 hrs; type: functional, cell-based
[38] = tested on: SW-620; experiment: Antitumor activity against human SW620 cells at 30 uM after 24 hrs; type: functional; settings: SW-620, 24 h
[39] = tested on: SW-620; experiment: Cell cycle arrest in human SW620 cells assessed as accumulation at G2/M phase at 50 uM after 72 hrs by FACS analysis; type: functional
[40] = tested on: SW-620; experiment: Antitumor activity against human SW620 cells at 50 uM after 96 hrs; type: functional; settings: SW-620, 96 h
[41] = tested on: SW-620; experiment: Antitumor activity against human SW620 cells at 30 uM after 48 hrs; type: functional; settings: SW-620, 48 h

SMILES: COc1cccc2c1C(=O)c1c(O)c3c(c(O)c1C2=O)C[C@@](O)(C(=O)CO)C[C@@H]3O[C@H]1C[C@H](N)[C@H](O)[C@H](C)O1 [DOXORUBICIN]
- Activity [1]: 53.7%
- Activity [2]: 13.1%
- Activity [3]: 58%

SMILES: C=CCc1ccc(O)c(-c2ccc(O)c(CC=C)c2)c1 [HONOKIOL]
- Activity [4]: Non-toxic
- Activity [5]: 150 mm3
- Activity [6]: 100 mm3
- Activity [7]: 270 mm3
- Activity [8]: 900 mm3
- Activity [9]: 600 mm3

SMILES: C=CCc1ccc(Oc2cc(CC=C)cc(O)c2O)cc1 [OBOVATOR]
- Activity [10]: Active
- Activity [4]: Non-toxic
- Activity [11]: inactive
- inhibition at 100 µM [12]: 98%
- Activity [13]: Active
- inhibition at 100 µM [14]: 97%
- Activity [15]: Active
- Activity [16]: Active
- inhibition at 30 µM [17]: 18%
- Activity [18]: <50%
- Activity [19]: Active
- Activity [20]: Active
- Activity [5]: 130 mm3
- Activity [6]: 100 mm3
- Activity [21]: Active
- inhibition at 50 µM [22]: 21%
- Activity [23]: <12%
- inhibition at 50 µM [24]: 57%
- Activity [25]: 23.36%
- inhibition at 100 µM [26]: 36%
- Activity [7]: 150 mm3
- Activity [27]: Active
- Activity [28]: 53.6%
- inhibition at 50 µM [29]: 64%
- Activity [30]: Active
- Activity [31]: 44.6%
- inhibition at 30 µM [32]: 33%
- Activity [33]: 30.4%
- inhibition at 100 µM [34]: 92%
- Activity [8]: 750 mm3
- Activity [9]: 400 mm3
- Activity [35]: Active
- Activity [36]: 277 mm3
- Activity [37]: inactive
- inhibition at 30 µM [38]: 7%
- Activity [39]: 16%
- inhibition at 50 µM [40]: 85%
- inhibition at 30 µM [41]: 26%

Reference: ChEMBL document CHEMBL1144188, “Obovatol inhibits colorectal cancer growth by inhibiting tumor cell proliferation and inducing apoptosis” (Bioorg Med Chem, 2008)
